Measurements taken from publication PMC5224920, “Assessing the mechanism and therapeutic potential of modulators of the human Mediator complex-associated protein kinases” (eLife, 2016).

Tested on: 12 single or co-culture in vitro tissue models of primary cells
Assay: Culture/co-culture cell model panel, extracellular biomarkers (DiscoveRx); for CCL2/MCP-1: reference of the scale not given here; for CD38: reference of the scale not given here; for CD40: reference of the scale not given here; for CD69: reference of the scale not given here; for CXCL8/IL-8: reference of the scale not given here; for CXCL9/MIG: reference of the scale not given here; for IL-1alpha: reference of the scale not given here; for PBMC Cytotoxicity: reference of the scale not given here; for SRB: reference of the scale not given here
Assay type: cell-based, human

## Cc1n[nH]c2ncc(C(=O)N3CCC[C@H]3c3ccc(Cl)cc3)cc12 [CMPD4]
/TH2, 3.33E3 nM
  CCL26/Eotaxin-3: -0.151
  CD38: -0.023
  CD40: -0.167
  CD62E/E-Selectin: 0.088
  CD62P/P-selectin: -0.076
  CD69: 0.020
  CD87/uPAR: -0.191
  CD106/VCAM-1: 0.009
  CXCL8/IL-8: -0.082
  CXCL9/MIG: -0.033
  Collagen IV: 0.00458
  PBMC Cytotoxicity: -0.051
  SRB: -0.131
  sIL-17A: 0.034
  sIL-17F: 0.022
/TH2, 3.70E2 nM
  CCL2/MCP-1: -0.111
  CCL26/Eotaxin-3: -0.170
  CD38: 0.020
  CD40: -0.169
  CD62E/E-Selectin: 0.039
  CD62P/P-selectin: -0.043
  CD69: 0.055
  CD87/uPAR: -0.203
  CD106/VCAM-1: 0.023
  CXCL8/IL-8: -0.040
  CXCL9/MIG: -0.019
  Collagen IV: -0.00656
  PBMC Cytotoxicity: 0.007
  SRB: -0.083
  sIL-17A: 0.040
  sIL-17F: 0.00074
/TH2, 4.12E1 nM
  CCL2/MCP-1: -0.080
  CCL26/Eotaxin-3: -0.157
  CD38: 0.006
  CD40: -0.170
  CD62E/E-Selectin: 0.069
  CD62P/P-selectin: -0.051
  CD69: 0.028
  CD87/uPAR: -0.181
  CD106/VCAM-1: 0.009
  CXCL8/IL-8: -0.049
  CXCL9/MIG: -0.018
  Collagen IV: -0.002
  PBMC Cytotoxicity: -0.057
  SRB: -0.051
  sIL-17A: 0.042
  sIL-17F: 0.053
/TH2, 4.57E0 nM
  CCL2/MCP-1: -0.000419
  CCL26/Eotaxin-3: -0.103
  CD38: -0.00453
  CD40: -0.110
  CD62E/E-Selectin: 0.029
  CD62P/P-selectin: 0.013
  CD69: 0.026
  CD87/uPAR: -0.100
  CD106/VCAM-1: 0.017
  CXCL8/IL-8: 0.027
  CXCL9/MIG: 0.021
  Collagen IV: 0.011
  PBMC Cytotoxicity: -0.009
  SRB: -0.014
  sIL-17A: 0.056
  sIL-17F: 0.044
BENo, 1.00E4 nM
  CCL26/Eotaxin-3: 0.048
  CD54/ICAM-1: -0.115
  CD87/uPAR: -0.014
  CXCL8/IL-8: -0.033
  CXCL9/MIG: 0.082
  CXCL10/IP-10: -0.00135
  CXCL11/I-TAC: -0.038
  EGFR: 0.006
  HLA-DR: -0.032
  IL-1alpha: -0.034
  Keratin 8/18: -0.032
  MMP-1: 0.000562
  MMP-9: -0.051
  PAI-I: -0.097
  SRB: -0.020
  tPA: -0.115
  uPA: -0.041
BENo, 1.11E3 nM
  CCL26/Eotaxin-3: -0.033
  CD54/ICAM-1: -0.081
  CD87/uPAR: -0.049
  CXCL8/IL-8: -0.031
  CXCL9/MIG: -0.00357
  CXCL10/IP-10: -0.058
  CXCL11/I-TAC: -0.048
  EGFR: 0.007
  HLA-DR: 0.036
  IL-1alpha: -0.027
  Keratin 8/18: 3.05e-5
  MMP-1: -0.038
  MMP-9: -0.005
  PAI-I: -0.107
  SRB: 0.008
  tPA: -0.047
  uPA: -0.007
BENo, 1.23E2 nM
  CCL26/Eotaxin-3: -0.013
  CD54/ICAM-1: -0.092
  CD87/uPAR: -0.00225
  CXCL8/IL-8: -0.028
  CXCL9/MIG: -0.018
  CXCL10/IP-10: -0.010
  CXCL11/I-TAC: -0.021
  EGFR: 0.013
  HLA-DR: 0.00213
  IL-1alpha: 0.008
  Keratin 8/18: -0.021
  MMP-1: -0.035
  MMP-9: -0.086
  PAI-I: -0.061
  SRB: 0.015
  tPA: -0.029
  uPA: -0.020
BENo, 1.37E1 nM
  CCL26/Eotaxin-3: 0.037
  CD54/ICAM-1: -0.062
  CD87/uPAR: 0.021
  CXCL8/IL-8: -0.025
  CXCL9/MIG: -0.110
  CXCL10/IP-10: -0.013
  CXCL11/I-TAC: -0.064
  EGFR: 0.011
  HLA-DR: 0.054
  IL-1alpha: -0.002
  Keratin 8/18: -0.018
  MMP-1: -0.037
  MMP-9: -0.035
  PAI-I: -0.045
  SRB: 0.023
  tPA: 0.009
  uPA: -0.014
BENo, 3.33E3 nM
  CCL26/Eotaxin-3: -0.026
  CD54/ICAM-1: -0.069
  CD87/uPAR: -0.045
  CXCL8/IL-8: -0.035
  CXCL9/MIG: -0.00357
  CXCL10/IP-10: -0.006
  CXCL11/I-TAC: -0.044
  EGFR: 0.00248
  HLA-DR: 0.016
  IL-1alpha: -0.032
  Keratin 8/18: -0.033
  MMP-1: -0.028
  MMP-9: -0.009
  PAI-I: -0.091
  SRB: -0.011
  tPA: -0.052
  uPA: -0.052
BENo, 3.70E2 nM
  CCL26/Eotaxin-3: -0.028
  CD54/ICAM-1: -0.092
  CD87/uPAR: -0.025
  CXCL8/IL-8: -0.027
  CXCL9/MIG: -0.00262
  CXCL10/IP-10: -0.017
  CXCL11/I-TAC: -0.036
  EGFR: -0.014
  HLA-DR: -0.009
  IL-1alpha: -0.009
  Keratin 8/18: -0.013
  MMP-1: -0.038
  MMP-9: -0.012
  PAI-I: -0.072
  SRB: 0.008
